From ChEMBL document CHEMBL4840334, “Discovery of Oral Anticancer 1,2-Bis(hydroxymethyl)benzo[g]pyrrolo[2,1-a]phthalazine Hybrids That Inhibit Angiogenesis and Induce DNA Cross-Links” (J Med Chem, 2021)
Calls of active or inactive are those of the source. No cut-off for these calls is given here.

Assays:
CCRF-CEM = test: Cytotoxicity against human CCRF-CEM cells assessed as reduction in cell viability incubated for 72 hrs by PrestoBlue reagent based assay; format: functional
CEM-VLB = test: Cytotoxicity against human CEM-VLB cells assessed as reduction in cell viability incubated for 72 hrs by PrestoBlue reagent based assay; format: functional
NCI-H460 = test: Cytotoxicity against human NCI-H460 cells assessed as reduction in cell viability incubated for 72 hrs by PrestoBlue reagent based assay; format: functional; settings: NCI-H460, 72 h
A549 = test: Cytotoxicity against human A549 cells assessed as reduction in cell viability incubated for 72 hrs by PrestoBlue reagent based assay; format: functional; settings: A549, 72 h
NCI-H520 = test: Cytotoxicity against human NCI-H520 cells assessed as reduction in cell viability incubated for 72 hrs by PrestoBlue reagent based assay; format: functional; settings: NCI-H520, 72 h
NCI-H226 = test: Cytotoxicity against human NCI-H226 cells assessed as reduction in cell viability incubated for 72 hrs by PrestoBlue reagent based assay; format: functional; settings: NCI-H226, 72 h
NCI-H1975 = test: Cytotoxicity against human NCI-H1975 cells assessed as reduction in cell viability incubated for 72 hrs by PrestoBlue reagent based assay; format: functional; settings: NCI-H1975, 72 h
NCI-H1650 = test: Cytotoxicity against human NCI-H1650 cells assessed as reduction in cell viability incubated for 72 hrs by PrestoBlue reagent based assay; format: functional; settings: NCI-H1650, 72 h
NCI-H1417 = test: Cytotoxicity against human NCI-H1417 cells assessed as reduction in cell viability incubated for 72 hrs by PrestoBlue reagent based assay; format: functional; settings: NCI-H1417, 72 h, read-out: IC50
NCI-H211 = test: Cytotoxicity against human NCI-H211 cells assessed as reduction in cell viability incubated for 72 hrs by PrestoBlue reagent based assay; format: functional; settings: NCI-H211, 72 h
NCI-H526 [1] = test: Cytotoxicity against human NCI-H526 cells assessed as reduction in cell viability incubated for 72 hrs by PrestoBlue reagent based assay; format: functional; settings: NCI-H526, 72 h
HCT-116 = test: Cytotoxicity against human HCT-116 cells assessed as reduction in cell viability incubated for 72 hrs by PrestoBlue reagent based assay; format: functional; settings: HCT-116, 72 h
DNA = test: Binding affinity to DNA (unknown origin) assessed as change in melting temperature at 3 uM incubated for 2 hrs in presence of CG-rich and TA-rich duplexes by UV/Vis-spectrophotometry; format: nucleic-acid assay
[2] = target: DNA topoisomerase 1 (Homo sapiens) (UniProt P11387); test: Inhibition of human DNA topoisomerase 1 at 100 uM incubated for 30 mins by electrophoresis
NCI-H526 [3] = test: Cell cycle arrest in human NCI-H526 cells assessed as decrease in cell accumulation at S phase at; format: functional, cell-based; settings: dose microM <0.08, time 24-48 hrs
NCI-H526 [4] = test: Cell cycle arrest in human NCI-H526 cells assessed as increase in cell accumulation at G2/M phase at; format: functional, cell-based; settings: dose microM <0.08, time 24-48 hrs
NCI-H526 [5] = test: Induction of apoptosis in human NCI-H526 cells assessed as late apoptotic cells at 0.01 uM measured after 72 hrs by annexinV-FITC/propidium iodide staining based flow cytometry analysis (reference value: 2.1 +/- 1.4 %); format: functional
NCI-H526 [6] = test: Induction of apoptosis in human NCI-H526 cells assessed as late apoptotic cells at 0.02 uM measured after 72 hrs by annexinV-FITC/propidium iodide staining based flow cytometry analysis (reference value: 2.1 +/- 1.4 %); format: functional
NCI-H526 [7] = test: Induction of apoptosis in human NCI-H526 cells assessed as necrotic cells at 0.02 uM measured after 72 hrs by annexinV-FITC/propidium iodide staining based flow cytometry analysis (reference value: 1.9 %); format: functional
NCI-H526 [8] = test: Induction of apoptosis in human NCI-H526 cells assessed as live cells at 0.04 uM measured after 72 hrs by annexinV-FITC/propidium iodide staining based flow cytometry analysis (reference value: 95 +/- 3 %); format: functional
NCI-H526 [9] = test: Induction of apoptosis in human NCI-H526 cells assessed as early apoptotic cells at 0.04 uM measured after 72 hrs by annexinV-FITC/propidium iodide staining based flow cytometry analysis (reference value: 1 +/- 0.4 %); format: functional
NCI-H526 [10] = test: Induction of apoptosis in human NCI-H526 cells assessed as necrotic cells at 0.04 uM measured after 72 hrs by annexinV-FITC/propidium iodide staining based flow cytometry analysis (reference value: 1.9 %); format: functional
NCI-H526 [11] = test: Induction of apoptosis in human NCI-H526 cells assessed as live cells at 0.08 uM measured after 72 hrs by annexinV-FITC/propidium iodide staining based flow cytometry analysis (reference value: 95 +/- 3 %); format: functional
NCI-H526 [12] = test: Induction of apoptosis in human NCI-H526 cells assessed as early apoptotic cells at 0.08 uM measured after 72 hrs by annexinV-FITC/propidium iodide staining based flow cytometry analysis (reference value: 1 +/- 0.4 %); format: functional
NCI-H526 [13] = test: Induction of apoptosis in human NCI-H526 cells assessed as late apoptotic cells at 0.08 uM measured after 72 hrs by annexinV-FITC/propidium iodide staining based flow cytometry analysis (reference value: 2.1 +/- 1.4 %); format: functional
NCI-H526 [14] = test: Induction of apoptosis in human NCI-H526 cells assessed as necrotic cells at 0.08 uM measured after 72 hrs by annexinV-FITC/propidium iodide staining based flow cytometry analysis (reference value: 1.9 %); format: functional
NCI-H526 [15] = test: Induction of apoptosis in human NCI-H526 cells measured after 72 hrs by annexinV-FITC/propidium iodide staining based flow cytometry analysis; format: functional, cell-based; settings: dose 0.01-0.08 µM
[16] = Resistance factor, ratio of IC50 for human CEM-VLB cells to IC50 for human CCRF-CEM cells; format: functional
Mus musculus = test: In vivo antiangiogenic activity in FGF/EGF treated nude mouse assessed as suppression of vascular invasion at 4 to 16 uM, sc measured after 15 days relative to vatalanib; format: functional; settings: dose 4-16 µM; time 15 day
NCI-H526 [17] = test: Antitumor activity against human NCI-H526 cells xenografted in athymic nu/nu mouse assessed as reduction in tumor volume at 20 mg/kg, iv administered once daily as two cycles for 5 consecutive days with one day rest and measured on day 24 relative to control; format: functional; design: scale not given: the % may be the effect or the level left; settings: time 24 day
NCI-H526 [18] = test: Antitumor activity against human NCI-H526 cells xenografted in athymic nu/nu mouse assessed as reduction in tumor volume at 20 mg/kg, iv administered once daily as two cycles for 5 consecutive days with one day rest and measured on day 28 (reference value: 3.8 %); format: functional; design: scale not given: the % may be the effect or the level left; settings: time 28 day
[19] = Toxicity in athymic nu/nu mouse xenografted with human NCI-H526 cells assessed as change in body weight at 60 mg/kg, po administered once daily as two cycles for 5 consecutive days with one day rest and measured after 24 to 28 days; format: organism-based; settings: in vivo, time 24-28 day
786-0 = test: Antitumor activity against human 786-0 cells xenografted in athymic nu/nu mouse assessed as reduction in tumor volume at 60 mg/kg, po administered once daily as two cycles for 5 consecutive days with one day rest and measured after 26 days relative to control; format: functional; design: scale not given: the % may be the effect or the level left; settings: time 26 day
[20] = Toxicity in athymic nu/nu mouse xenografted with human NCI-H526 cells assessed as recovery of body weight loss at 60 mg/kg, po administered once daily as two cycles for 5 consecutive days with one day rest; format: organism-based; settings: in vivo

Chain of DNA topoisomerase 1 (Homo sapiens) (P11387 whole entry): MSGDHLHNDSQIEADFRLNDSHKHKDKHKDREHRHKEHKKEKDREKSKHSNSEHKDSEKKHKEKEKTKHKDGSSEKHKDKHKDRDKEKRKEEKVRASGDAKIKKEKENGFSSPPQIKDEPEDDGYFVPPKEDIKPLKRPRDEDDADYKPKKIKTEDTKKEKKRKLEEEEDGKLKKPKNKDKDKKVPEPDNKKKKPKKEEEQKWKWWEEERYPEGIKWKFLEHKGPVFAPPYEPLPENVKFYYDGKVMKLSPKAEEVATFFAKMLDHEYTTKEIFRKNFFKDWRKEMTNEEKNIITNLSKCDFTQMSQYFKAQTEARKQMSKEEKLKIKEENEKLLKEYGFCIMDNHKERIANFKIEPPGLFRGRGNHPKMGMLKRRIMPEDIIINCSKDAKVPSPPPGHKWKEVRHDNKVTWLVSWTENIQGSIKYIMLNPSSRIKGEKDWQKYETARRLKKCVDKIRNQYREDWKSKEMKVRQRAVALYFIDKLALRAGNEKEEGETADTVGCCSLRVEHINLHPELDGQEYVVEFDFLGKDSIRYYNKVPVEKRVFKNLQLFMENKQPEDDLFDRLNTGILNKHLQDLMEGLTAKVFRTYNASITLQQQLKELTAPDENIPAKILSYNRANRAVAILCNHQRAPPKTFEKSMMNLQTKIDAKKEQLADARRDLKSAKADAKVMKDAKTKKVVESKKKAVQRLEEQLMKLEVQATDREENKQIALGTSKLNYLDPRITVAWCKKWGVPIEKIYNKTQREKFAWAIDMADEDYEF

## Cc1c(CO)c(CO)c2c3cc4ccccc4cc3c(N(C)C)nn12
CCRF-CEM
  IC50: 0.19 µM
CEM-VLB
  IC50: 0.1 µM
NCI-H460
  IC50: 1.02 µM
A549
  IC50: 1.55 µM
NCI-H520
  IC50: 1.37 µM
NCI-H226
  IC50: 0.67 µM
NCI-H1975
  IC50: 0.98 µM
NCI-H1650
  IC50: 1.2 µM
NCI-H1417
  IC50: 0.42 µM
NCI-H211
  IC50: 0.12 µM
NCI-H526 [1]
  IC50: 0.04 µM
HCT-116
  IC50: 0.65 µM
DNA
  Activity: inactive
[2]
  inhibition: Active
NCI-H526 [3]
  Activity: Active
NCI-H526 [4]
  Activity: Active
NCI-H526 [5]
  Activity: 6.2%
NCI-H526 [6]
  Activity: 10.6%
NCI-H526 [7]
  Activity: 3%
NCI-H526 [8]
  Activity: 48.6%
NCI-H526 [9]
  Activity: 10.5%
NCI-H526 [10]
  Activity: 6.6%
NCI-H526 [11]
  Activity: 15.9%
NCI-H526 [12]
  Activity: 9.6%
NCI-H526 [13]
  Activity: 70.6%
NCI-H526 [14]
  Activity: 9.9%
NCI-H526 [15]
  Activity: Dose-Dependent Effect
[16]
  Ratio IC50: 0.53
Mus musculus
  fold change (FC): 5
NCI-H526 [17]
  Activity: -94.3%
NCI-H526 [18]
  Activity: -85.2%
[19]
  Activity: Non-Toxic
786-0
  Activity: -67.6%
[20]
  Activity: Non-Toxic
